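Five concentrations, 48 hours, 96-well plates. Here, GI50 denotes the concentration required for 50% inhibition of growth. At the TGI there is no net growth.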
Assays:
Assay in all cases: NCI-60 cell line screen, 48 h
U251 CNS = test system: U251 CNS
NCI-H460 lung = test system: NCI-H460 lung
K-562 leukemia = test system: K-562 leukemia
RXF 393 renal = test system: RXF 393 renal
CCRF-CEM leukemia = test system: CCRF-CEM leukemia
HOP-92 NSCLC = test system: HOP-92 NSCLC
SK-OV-3 ovarian = test system: SK-OV-3 ovarian
SF-295 CNS = test system: SF-295 CNS
UACC-257 melanoma = test system: UACC-257 melanoma
A498 renal = test system: A498 renal
SN12C renal = test system: SN12C renal
SK-MEL-28 melanoma = test system: SK-MEL-28 melanoma
SNB-19 CNS = test system: SNB-19 CNS
SW-620 colon = test system: SW-620 colon
DU-145 prostate = test system: DU-145 prostate
SK-MEL-2 melanoma = test system: SK-MEL-2 melanoma
HT29 colon = test system: HT29 colon
UO-31 renal = test system: UO-31 renal
OVCAR-3 ovarian = test system: OVCAR-3 ovarian
HOP-62 NSCLC = test system: HOP-62 NSCLC
MOLT-4 leukemia = test system: MOLT-4 leukemia
CAKI-1 renal = test system: CAKI-1 renal
NCI-H226 lung = test system: NCI-H226 lung
MDA-MB-231 breast = test system: MDA-MB-231 breast
HCT-15 colon = test system: HCT-15 colon
OVCAR-8 ovarian = test system: OVCAR-8 ovarian
ACHN renal = test system: ACHN renal
LOX IMVI melanoma = test system: LOX IMVI melanoma
MALME-3M melanoma = test system: MALME-3M melanoma
TK-10 renal = test system: TK-10 renal
PC-3 prostate = test system: PC-3 prostate
MDA-MB-435 = test system: MDA-MB-435
UACC-62 melanoma = test system: UACC-62 melanoma
RPMI-8226 leukemia = test system: RPMI-8226 leukemia
786-0 renal = test system: 786-0 renal
M14 melanoma = test system: M14 melanoma
OVCAR-4 ovarian = test system: OVCAR-4 ovarian
SF-539 CNS = test system: SF-539 CNS
SF-268 CNS = test system: SF-268 CNS
EKVX NSCLC = test system: EKVX NSCLC
SR leukemia = test system: SR leukemia
HL-60(TB) leukemia = test system: HL-60(TB) leukemia
COLO 205 colon = test system: COLO 205 colon
KM12 colon = test system: KM12 colon
A549 NSCLC = test system: A549 NSCLC
NCI/ADR-RES ovarian = test system: NCI/ADR-RES ovarian
IGROV1 ovarian = test system: IGROV1 ovarian
NCI-H23 lung = test system: NCI-H23 lung
MCF7 breast = test system: MCF7 breast
HCT-116 colon = test system: HCT-116 colon
SK-MEL-5 melanoma = test system: SK-MEL-5 melanoma
HS 578T breast = test system: HS 578T breast
BT-549 breast = test system: BT-549 breast
T-47D breast = test system: T-47D breast
SNB-75 CNS = test system: SNB-75 CNS
OVCAR-5 ovarian = test system: OVCAR-5 ovarian
NCI-H522 lung = test system: NCI-H522 lung

O=C1c2ccccc2-c2ccccc2C1(Cl)Cl
GI50 (U251 CNS): 0.314 µM
TGI (U251 CNS): 1.07 µM
GI50 (NCI-H460 lung): 1.91 µM
TGI (NCI-H460 lung): 3.97 µM
GI50 (K-562 leukemia): 0.43 µM
TGI (K-562 leukemia): 5.46 µM
GI50 (RXF 393 renal): 1.78 µM
TGI (RXF 393 renal): 3.2 µM
GI50 (CCRF-CEM leukemia): 1.65 µM
TGI (CCRF-CEM leukemia): 7.03 µM
GI50 (HOP-92 NSCLC): 1.76 µM
TGI (HOP-92 NSCLC): 4.07 µM
GI50 (SK-OV-3 ovarian): 1.7 µM
TGI (SK-OV-3 ovarian): 3.08 µM
GI50 (SF-295 CNS): 1.27 µM
TGI (SF-295 CNS): 3 µM
GI50 (UACC-257 melanoma): 0.203 µM
TGI (UACC-257 melanoma): 0.476 µM
GI50 (A498 renal): 1.09 µM
TGI (A498 renal): 2.77 µM
GI50 (SN12C renal): 1.45 µM
TGI (SN12C renal): 2.98 µM
GI50 (SK-MEL-28 melanoma): 1.8 µM
TGI (SK-MEL-28 melanoma): 3.24 µM
GI50 (SNB-19 CNS): 1.84 µM
TGI (SNB-19 CNS): 4.66 µM
GI50 (SW-620 colon): 1.84 µM
TGI (SW-620 colon): 3.82 µM
GI50 (DU-145 prostate): 1.47 µM
TGI (DU-145 prostate): 2.78 µM
GI50 (SK-MEL-2 melanoma): 1.52 µM
TGI (SK-MEL-2 melanoma): 3.02 µM
GI50 (HT29 colon): 2.52 µM
TGI (HT29 colon): 7.57 µM
GI50 (UO-31 renal): 1.12 µM
TGI (UO-31 renal): 2.41 µM
GI50 (OVCAR-3 ovarian): 1.41 µM
TGI (OVCAR-3 ovarian): 2.71 µM
GI50 (HOP-62 NSCLC): 1.13 µM
TGI (HOP-62 NSCLC): 2.64 µM
GI50 (MOLT-4 leukemia): 2.19 µM
TGI (MOLT-4 leukemia): 7.09 µM
GI50 (CAKI-1 renal): 1.17 µM
TGI (CAKI-1 renal): 2.63 µM
GI50 (NCI-H226 lung): 1.79 µM
TGI (NCI-H226 lung): 3.49 µM
GI50 (MDA-MB-231 breast): 1.36 µM
TGI (MDA-MB-231 breast): 3.63 µM
GI50 (HCT-15 colon): 1.81 µM
TGI (HCT-15 colon): 4.25 µM
GI50 (OVCAR-8 ovarian): 0.334 µM
TGI (OVCAR-8 ovarian): 1.26 µM
GI50 (ACHN renal): 1.72 µM
TGI (ACHN renal): 3.53 µM
GI50 (LOX IMVI melanoma): 0.314 µM
GI50 (MALME-3M melanoma): 0.98 µM
TGI (MALME-3M melanoma): 2.3 µM
GI50 (TK-10 renal): 1.25 µM
TGI (TK-10 renal): 2.68 µM
GI50 (PC-3 prostate): 1.08 µM
TGI (PC-3 prostate): 3.31 µM
GI50 (MDA-MB-435): 0.197 µM
TGI (MDA-MB-435): 0.372 µM
GI50 (UACC-62 melanoma): 1.66 µM
TGI (UACC-62 melanoma): 3.34 µM
GI50 (RPMI-8226 leukemia): 0.527 µM
TGI (RPMI-8226 leukemia): 2.63 µM
GI50 (786-0 renal): 2.11 µM
TGI (786-0 renal): 4.16 µM
GI50 (M14 melanoma): 1.26 µM
TGI (M14 melanoma): 2.65 µM
GI50 (OVCAR-4 ovarian): 0.19 µM
TGI (OVCAR-4 ovarian): 0.337 µM
GI50 (SF-539 CNS): 1.71 µM
TGI (SF-539 CNS): 3.23 µM
GI50 (SF-268 CNS): 1.28 µM
TGI (SF-268 CNS): 2.59 µM
GI50 (EKVX NSCLC): 1.46 µM
TGI (EKVX NSCLC): 2.88 µM
GI50 (SR leukemia): 2.71 µM
TGI (SR leukemia): 8.71 µM
GI50 (HL-60(TB) leukemia): 2.29 µM
TGI (HL-60(TB) leukemia): 5.93 µM
GI50 (COLO 205 colon): 1.81 µM
TGI (COLO 205 colon): 3.47 µM
GI50 (KM12 colon): 1.73 µM
TGI (KM12 colon): 3.17 µM
GI50 (A549 NSCLC): 1.49 µM
TGI (A549 NSCLC): 3.21 µM
GI50 (NCI/ADR-RES ovarian): 0.398 µM
TGI (NCI/ADR-RES ovarian): 1.85 µM
GI50 (IGROV1 ovarian): 1.13 µM
TGI (IGROV1 ovarian): 2.54 µM
GI50 (NCI-H23 lung): 1.57 µM
TGI (NCI-H23 lung): 4.25 µM
GI50 (MCF7 breast): 1.86 µM
TGI (MCF7 breast): 4.19 µM
GI50 (HCT-116 colon): 0.3 µM
TGI (HCT-116 colon): 1.09 µM
GI50 (SK-MEL-5 melanoma): 1.32 µM
TGI (SK-MEL-5 melanoma): 2.63 µM
GI50 (HS 578T breast): 2.5 µM
TGI (HS 578T breast): 9.41 µM
GI50 (BT-549 breast): 1.72 µM
TGI (BT-549 breast): 3.14 µM
GI50 (T-47D breast): 1.6 µM
TGI (T-47D breast): 4.12 µM
GI50 (SNB-75 CNS): 1.62 µM
TGI (SNB-75 CNS): 3 µM

CCOC(=O)C1=C(C)N(c2ccc(Cl)cc2)C2(O)C=CC(Nc3ccc(Cl)cc3)=C3C(=O)N(c4ccccc4)C(=O)C312 (stereo unspecified)
TGI (U251 CNS): 39.5 µM
TGI (NCI-H460 lung): 13.7 µM
TGI (K-562 leukemia): > 100 µM
TGI (CCRF-CEM leukemia): 8.39 µM
TGI (HOP-92 NSCLC): 9.19 µM
TGI (SK-OV-3 ovarian): 24.9 µM
TGI (SF-295 CNS): 13.8 µM
TGI (UACC-257 melanoma): 39.2 µM
TGI (A498 renal): 9.33 µM
TGI (SN12C renal): 13.4 µM
TGI (SK-MEL-28 melanoma): 6.89 µM
TGI (SNB-19 CNS): 52.3 µM
TGI (SW-620 colon): 14.6 µM
TGI (DU-145 prostate): 17.8 µM
TGI (OVCAR-5 ovarian): 21.3 µM
TGI (SK-MEL-2 melanoma): 10.5 µM
TGI (HT29 colon): 16.9 µM
TGI (UO-31 renal): 20.3 µM
TGI (OVCAR-3 ovarian): 2.09 µM
TGI (HOP-62 NSCLC): 14.9 µM
TGI (MOLT-4 leukemia): > 100 µM
TGI (CAKI-1 renal): 13.5 µM
TGI (MDA-MB-231 breast): 35.2 µM
TGI (HCT-15 colon): 16.3 µM
TGI (OVCAR-8 ovarian): 18.1 µM
TGI (ACHN renal): 20 µM
TGI (LOX IMVI melanoma): 4.36 µM
TGI (MALME-3M melanoma): 33.7 µM
TGI (TK-10 renal): 52.1 µM
TGI (PC-3 prostate): 22.8 µM
TGI (MDA-MB-435): 5.29 µM
TGI (UACC-62 melanoma): 7.15 µM
TGI (RPMI-8226 leukemia): 4.13 µM
TGI (M14 melanoma): 19.7 µM
TGI (OVCAR-4 ovarian): 15.1 µM
TGI (SF-539 CNS): 18.3 µM
TGI (SF-268 CNS): 20.1 µM
TGI (SR leukemia): > 100 µM
TGI (HL-60(TB) leukemia): 23.4 µM
TGI (COLO 205 colon): 7.2 µM
TGI (KM12 colon): 23.1 µM
TGI (NCI-H522 lung): 5.25 µM
TGI (A549 NSCLC): > 100 µM
TGI (NCI/ADR-RES ovarian): 12.7 µM
TGI (IGROV1 ovarian): 21.9 µM
TGI (NCI-H23 lung): 20 µM
TGI (MCF7 breast): 9.3 µM
TGI (SK-MEL-5 melanoma): 11 µM
TGI (HS 578T breast): > 100 µM
TGI (BT-549 breast): 4.69 µM
TGI (T-47D breast): 19.4 µM
TGI (SNB-75 CNS): 20.3 µM

— PubChem BioAssay (NCI)
